Where two headings read alike, the source gives them in different places.
Experiments:
OCT1 = target: T1, OCT1 (Homo sapiens, UniProt O15245); assay: in vitro
T1 construct: expressed in transfected cells
T1 sequence (O15245 1-554): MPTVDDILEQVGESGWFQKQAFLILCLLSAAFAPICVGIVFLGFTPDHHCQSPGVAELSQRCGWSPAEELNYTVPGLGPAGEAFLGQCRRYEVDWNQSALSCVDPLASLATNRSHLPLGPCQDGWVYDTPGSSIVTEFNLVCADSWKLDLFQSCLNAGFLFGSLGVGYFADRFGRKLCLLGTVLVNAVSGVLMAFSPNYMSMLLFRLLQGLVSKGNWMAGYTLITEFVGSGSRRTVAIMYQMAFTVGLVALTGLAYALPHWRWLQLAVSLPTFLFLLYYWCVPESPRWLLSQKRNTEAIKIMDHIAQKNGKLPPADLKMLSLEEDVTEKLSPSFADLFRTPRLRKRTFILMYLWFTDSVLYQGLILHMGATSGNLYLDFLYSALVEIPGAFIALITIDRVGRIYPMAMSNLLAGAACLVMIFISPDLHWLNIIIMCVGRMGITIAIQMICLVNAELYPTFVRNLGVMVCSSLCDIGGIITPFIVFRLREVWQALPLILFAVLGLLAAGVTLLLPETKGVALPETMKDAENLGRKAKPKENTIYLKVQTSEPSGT
Experimental: The inhibition of OCT1 by different psychotropic drugs was studied in transport experiments using HEK293 cells stably transfected with wild-type OCT1. The cells were generated by targeted chromosomal integration using the Flp-In system (Thermo Fisher Scientific, Darmstadt, Germany), as has been described in detail before ([Saadatmand et al., 2012]). The cells were cultured in Dulbecco’s Modified Eagle’s Medium supplemented with 10% foetal bovine serum, 100 U/ml penicillin, and 100 μg/ml streptomycin at 37°C, 5% CO2, and 95% relative humidity. Cells were kept in culture for no more than 30 passages. All buffers and reagents were purchased from Thermo Fisher Scientific (Darmstadt, Germany).
Approximately 48 h before the transport experiments, recombinant OCT1-expressing cells and empty vector-transfected control cells were seeded at a density of 4 × 10^5 cells/well in 12-well plates coated with poly-D-lysine and incubated as described above. On the day of the experiment, the cells were washed twice with prewarmed (37°C) Hank’s Balanced Salt Solution (HBSS). They were subsequently incubated for 3 min at 37°C with 1 µM of the fluorescent OCT1 substrate ASP^+ (4-(4-(dimethylamino)styryl)-N-methylpyridinium iodide) and increasing concentrations of the antidepressants in 500 µl HBSS. The reaction was stopped by adding 2 ml ice-cold HBSS. This was subsequently removed and the cells were lyzed in 500 µl radioimmunoprecipitation assay (RIPA) buffer for 10 min under shaking. The cell uptake of ASP^+ was quantified using a Tecan Ultra microplate reader (Tecan Group AG, Männedorf, Switzerland) at excitation wavelength 485 nm and emission wavelength 612 nm. The intracellular ASP^+ concentrations were normalised to the total amount of protein in the sample that was determined using the bicinchoninic acid assay ([Smith et al., 1985]). IC50 values were calculated using SigmaPlot 11 (Systat Software GmbH, Erkrath, Germany) and Prism 5 (GraphPad Software, San Diego, CA, United States).

[1] = Plasma concentrations per dose unit of AT and NT in depressive disorder patients (75 mg AT twice daily); format: in vivo, human; details: 12-hour-trough levels
Experimental: Briefly, 75 mg AT was administered twice daily at 12 h dosing intervals. Any drugs or dietary ingredients that might interfere with CYP2D6 or CYP2C19 metabolism were avoided whenever possible. Blood samples (12-hour-trough levels) were taken on days 0, 7, 14, 18, and 21, centrifuged, and stored at 4°C for genotyping (CYP2D6 and CYP2C19) and concentration analyses. The blood samples were subsequently stored at −20°C and later genotyped for OCT1.
The serum concentrations in depressive disorder patients were determined either by the Emit® immunoassay specific for AT and NT or a commercial high-performance liquid chromatography assay (Bio-Rad Laboratories GmbH, Feldkirchen, Germany), as described before ([Steimer et al., 2004]; [Steimer et al., 2005]).
The correlation between AT and NT plasma AUC (study in healthy volunteers) or mean plasma concentration per dose unit (study in depressive disorder patients) and OCT1, CYP2D6, and CYP2C19 genotypes were calculated using the Jonckheere-Terpstra non-parametric analysis, which takes into consideration the a priori ordering (or trend) in gene activities from zero to normal to ultra-rapid (for CYP2C19 and CYP2D6). To do so, the genotypes were categorized into 0, 1, or 2 active alleles for OCT1, into 0, 0.5, 1, 1.5, 2, 2.5, or 3 active alleles for CYP2D6, and into 0, 1, 1.5, 2, 2.5, or 3 active alleles for CYP2C19, depending on their known effects on transporter/enzyme activity. OCT1 alleles *2, *3, *4, *5 were classified as being zero active. […] A semi-quantitative gene dosage was calculated for CYP2D6, as has been described earlier ([Steimer et al., 2004]). For calculating a CYP2C19 activity score, CYP2C19*2 was regarded as zero active, CYP2C19*1 was classified as 1, and CYP2C19*17 as 1.5. Additional multiple linear regression analyses included sex, age, body mass index, and glomerular filtration rate.

[2] = OCT1 genotype *1 / *1 (n 27), mean ± standard deviation
[3] = OCT1 genotype *1 / *2 (n 14), mean ± standard deviation
[4] = OCT1 genotype *1 / *3 (n 2), mean ± standard deviation
[5] = OCT1 genotype *2 / *2 (n 3), mean ± standard deviation
[6] = OCT1 genotype *2 / *3 (n 2), mean ± standard deviation

CN(C)CCC=C1c2ccccc2CCc2ccccc21 [Amitriptyline, amitriptyline]
inhibition at 3 min, 2.69 µM (OCT1; human, HEK293 cells stably transfected with wild-type OCT1): 23%
IC50 (OCT1; read-out: IC50 (OCT1 inhibition)): 28.6 ± 18.9 µM
Mean plasma concentration per dose unit [1, 2]: 37.3 ± 15.9
Mean plasma concentration per dose unit [1, 3]: 44.0 ± 15.2
Mean plasma concentration per dose unit [1, 4]: 56.9 ± 36.0
Mean plasma concentration per dose unit ([1]; OCT1 genotype *1 / *4 (n 1)): 38.7
Mean plasma concentration per dose unit [1, 5]: 47.6 ± 15.4
Mean plasma concentration per dose unit [1, 6]: 52.6 ± 31.9
Mean plasma concentration per dose unit ([1]; OCT1 genotype *3 / *3 (n 1)): 53.9

CNCCC=C1c2ccccc2CCc2ccccc21 [Nortriptyline, nortriptyline]
IC50 (OCT1; inhibition of uptake of 1 µM ASP+, 3 min, HEK293 cells with wild-type OCT1, mean): 40.4 ± 16.2 µM
Mean plasma concentration per dose unit [1, 2]: 34.0 ± 18.3
Mean plasma concentration per dose unit [1, 3]: 33.5 ± 14.6
Mean plasma concentration per dose unit [1, 4]: 34.6 ± 12.4
Mean plasma concentration per dose unit ([1]; OCT1 genotype *1 / *4 (n 1)): 39.6
Mean plasma concentration per dose unit [1, 5]: 40.6 ± 26.7
Mean plasma concentration per dose unit [1, 6]: 28.0 ± 13.2
Mean plasma concentration per dose unit ([1]; OCT1 genotype *3 / *3 (n 1)): 29.9
